Results published in patent publication EP4678638A1, “NEW E3 UBIQUITIN LIGASE LIGAND, PROTEIN DEGRADATION AGENT AND USE THEREOF” (priority 2023, dated 2024).
pIC50: −log10 of the molar value. Where two headings read alike, the source gives them in different places.

How the values were obtained:
Type in all cases: cell-based
MM.1S = assay: CCK-8 proliferation, MM.1S; conditions: Homo sapiens, MM1.S, read-out: Inhibitory activity (IC50) on tumor cell proliferation, MM1S
Outline: (§1)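 Tumor cells were cultured at 37°C with 5% CO2, seeded, and after 24h treated with compounds at 10 concentrations starting at 10µM (5-fold serial dilutions).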

WEE1 = biological target: T1, WEE1 (Homo sapiens, UniProt P30291+Q96SW2); assay: Western blot degradation of WEE1 (hPBMC); conditions: Table D16
T1 construct: evaluate the effects of the compounds of the present disclosure on the expression of target proteins in cells; endogenous in cells; host or cells: hPBMC
T1 sequence (P30291 whole entry): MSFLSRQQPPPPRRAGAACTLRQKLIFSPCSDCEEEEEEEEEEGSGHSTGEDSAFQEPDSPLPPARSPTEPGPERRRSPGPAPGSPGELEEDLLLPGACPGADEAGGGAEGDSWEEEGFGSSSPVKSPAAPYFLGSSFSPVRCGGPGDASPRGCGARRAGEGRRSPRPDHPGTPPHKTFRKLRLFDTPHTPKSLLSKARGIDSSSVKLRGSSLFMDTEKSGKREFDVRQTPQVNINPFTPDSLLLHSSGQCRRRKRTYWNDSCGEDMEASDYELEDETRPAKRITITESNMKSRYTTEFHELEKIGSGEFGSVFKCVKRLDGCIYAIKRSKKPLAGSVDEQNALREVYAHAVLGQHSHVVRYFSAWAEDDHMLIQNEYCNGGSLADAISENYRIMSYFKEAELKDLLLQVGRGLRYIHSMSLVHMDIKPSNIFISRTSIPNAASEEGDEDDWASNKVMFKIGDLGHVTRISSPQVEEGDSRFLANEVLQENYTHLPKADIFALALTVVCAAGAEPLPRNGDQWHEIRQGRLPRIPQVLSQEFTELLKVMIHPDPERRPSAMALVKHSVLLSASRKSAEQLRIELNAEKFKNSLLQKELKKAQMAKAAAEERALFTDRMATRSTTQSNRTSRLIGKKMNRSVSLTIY
T1 sequence (Q96SW2 whole entry): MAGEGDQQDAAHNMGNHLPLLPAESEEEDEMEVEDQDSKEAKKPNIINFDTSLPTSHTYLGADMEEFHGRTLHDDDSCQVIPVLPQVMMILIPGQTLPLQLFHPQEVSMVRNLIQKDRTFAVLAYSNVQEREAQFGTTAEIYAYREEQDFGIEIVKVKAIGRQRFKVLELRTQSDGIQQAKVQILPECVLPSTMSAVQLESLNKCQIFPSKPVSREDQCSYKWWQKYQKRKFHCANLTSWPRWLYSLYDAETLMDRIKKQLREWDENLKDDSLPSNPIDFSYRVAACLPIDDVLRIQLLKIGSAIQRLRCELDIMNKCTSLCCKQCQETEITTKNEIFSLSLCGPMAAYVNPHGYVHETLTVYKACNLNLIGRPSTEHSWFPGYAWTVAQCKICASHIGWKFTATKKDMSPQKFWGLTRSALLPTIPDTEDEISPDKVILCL
T1 sequence (Q16531 whole entry partner): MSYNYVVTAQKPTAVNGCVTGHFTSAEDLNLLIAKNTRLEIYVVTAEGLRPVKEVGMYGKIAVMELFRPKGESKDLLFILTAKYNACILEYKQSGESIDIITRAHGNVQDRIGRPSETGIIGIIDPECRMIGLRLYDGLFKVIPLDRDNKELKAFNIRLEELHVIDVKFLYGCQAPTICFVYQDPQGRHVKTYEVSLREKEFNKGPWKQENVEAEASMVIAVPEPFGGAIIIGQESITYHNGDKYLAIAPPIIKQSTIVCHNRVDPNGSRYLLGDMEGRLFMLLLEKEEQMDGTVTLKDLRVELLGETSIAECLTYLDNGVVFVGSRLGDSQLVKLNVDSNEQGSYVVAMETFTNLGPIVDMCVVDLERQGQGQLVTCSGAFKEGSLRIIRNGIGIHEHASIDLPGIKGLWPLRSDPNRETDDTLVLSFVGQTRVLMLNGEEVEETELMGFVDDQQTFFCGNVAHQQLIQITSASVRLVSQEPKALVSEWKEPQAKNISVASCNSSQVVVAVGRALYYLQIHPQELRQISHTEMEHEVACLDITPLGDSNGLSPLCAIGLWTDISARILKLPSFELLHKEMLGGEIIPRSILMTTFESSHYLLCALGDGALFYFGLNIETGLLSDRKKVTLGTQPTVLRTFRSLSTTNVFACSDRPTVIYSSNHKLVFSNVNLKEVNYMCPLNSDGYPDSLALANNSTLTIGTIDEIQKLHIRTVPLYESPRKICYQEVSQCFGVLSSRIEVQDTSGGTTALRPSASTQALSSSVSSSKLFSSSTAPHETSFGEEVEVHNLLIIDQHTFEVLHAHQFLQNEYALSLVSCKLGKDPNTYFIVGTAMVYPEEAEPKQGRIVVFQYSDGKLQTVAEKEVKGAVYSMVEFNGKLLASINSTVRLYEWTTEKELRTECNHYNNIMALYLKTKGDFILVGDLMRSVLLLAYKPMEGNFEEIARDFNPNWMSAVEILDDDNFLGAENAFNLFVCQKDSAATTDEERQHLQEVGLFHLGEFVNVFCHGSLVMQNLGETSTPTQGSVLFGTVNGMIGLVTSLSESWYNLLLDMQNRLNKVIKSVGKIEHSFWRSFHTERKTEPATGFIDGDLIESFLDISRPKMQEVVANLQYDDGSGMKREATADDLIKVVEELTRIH
Outline: (§2)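 After compound exposure, cells were harvested and lysates run on SDS-PAGE, transferred to nitrocellulose and probed with antibodies. Remaining target (%) was computed from band grayscale relative to an internal control protein and normalised; degradation (%) was 100% minus that.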

IKZF1 = biological target: T2, IKZF1 (Homo sapiens, UniProt Q13422+Q96SW2); assay: Western blot degradation of IKZF1 (hPBMC); conditions: Table D16
T2 construct: evaluate the effects of the compounds of the present disclosure on the expression of target proteins in cells; endogenous in cells; host or cells: hPBMC
T2 sequence (Q13422 whole entry): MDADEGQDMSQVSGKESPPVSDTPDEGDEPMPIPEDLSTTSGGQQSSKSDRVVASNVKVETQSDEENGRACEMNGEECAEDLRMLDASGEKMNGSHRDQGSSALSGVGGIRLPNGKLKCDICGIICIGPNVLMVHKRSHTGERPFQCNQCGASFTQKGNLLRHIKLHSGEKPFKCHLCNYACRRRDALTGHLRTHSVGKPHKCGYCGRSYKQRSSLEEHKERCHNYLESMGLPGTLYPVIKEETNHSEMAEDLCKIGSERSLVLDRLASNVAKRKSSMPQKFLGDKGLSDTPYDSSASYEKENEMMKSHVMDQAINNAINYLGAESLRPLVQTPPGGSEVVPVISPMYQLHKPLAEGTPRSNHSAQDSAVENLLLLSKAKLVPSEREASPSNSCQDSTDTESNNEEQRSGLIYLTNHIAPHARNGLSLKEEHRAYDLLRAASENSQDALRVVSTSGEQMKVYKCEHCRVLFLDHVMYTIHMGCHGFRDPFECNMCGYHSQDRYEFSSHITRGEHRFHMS
T2 sequence (Q96SW2 whole entry): as the sequence (Q96SW2 whole entry) above
T2 sequence (Q16531 whole entry partner): as the sequence (Q16531 whole entry partner) above
Outline: as §2

IKZF2 = biological target: T3, IKZF2 (Homo sapiens, UniProt Q96SW2+Q9UKS7); assay: Western blot degradation of IKZF2 (hPBMC); conditions: Table D16
T3 construct: evaluate the effects of the compounds of the present disclosure on the expression of target proteins in cells; endogenous in cells; host or cells: hPBMC
T3 sequence (Q9UKS7 whole entry): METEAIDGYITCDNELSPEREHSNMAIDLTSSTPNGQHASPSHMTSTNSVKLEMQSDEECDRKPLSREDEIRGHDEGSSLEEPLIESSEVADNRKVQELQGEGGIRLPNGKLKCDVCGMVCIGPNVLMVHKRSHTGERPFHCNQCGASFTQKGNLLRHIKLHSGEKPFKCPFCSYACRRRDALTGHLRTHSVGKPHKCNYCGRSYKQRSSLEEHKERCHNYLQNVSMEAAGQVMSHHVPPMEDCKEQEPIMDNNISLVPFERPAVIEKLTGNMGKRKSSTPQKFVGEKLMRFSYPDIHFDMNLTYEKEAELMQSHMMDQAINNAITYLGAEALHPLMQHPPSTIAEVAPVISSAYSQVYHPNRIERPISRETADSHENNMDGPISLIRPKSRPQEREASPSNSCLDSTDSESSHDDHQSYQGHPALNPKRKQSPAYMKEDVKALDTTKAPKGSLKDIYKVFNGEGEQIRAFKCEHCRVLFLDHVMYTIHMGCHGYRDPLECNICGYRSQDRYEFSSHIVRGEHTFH
T3 sequence (Q96SW2 whole entry): as the sequence (Q96SW2 whole entry) above
T3 sequence (Q16531 whole entry partner): as the sequence (Q16531 whole entry partner) above
Outline: as §2

IKZF3 = biological target: T4, IKZF3 (Homo sapiens, UniProt Q96SW2+Q9UKT9); assay: Western blot degradation of IKZF3 (hPBMC); conditions: Table D16
T4 construct: evaluate the effects of the compounds of the present disclosure on the expression of target proteins in cells; endogenous in cells; host or cells: hPBMC
Outline: as §2

CK1a = biological target: T5, CK1a (Homo sapiens, UniProt P48729+Q96SW2); assay: Western blot degradation of CK1a (hPBMC); conditions: Table D16
T5 construct: evaluate the effects of the compounds of the present disclosure on the expression of target proteins in cells; endogenous in cells; host or cells: hPBMC
T5 sequence (P48729 whole entry): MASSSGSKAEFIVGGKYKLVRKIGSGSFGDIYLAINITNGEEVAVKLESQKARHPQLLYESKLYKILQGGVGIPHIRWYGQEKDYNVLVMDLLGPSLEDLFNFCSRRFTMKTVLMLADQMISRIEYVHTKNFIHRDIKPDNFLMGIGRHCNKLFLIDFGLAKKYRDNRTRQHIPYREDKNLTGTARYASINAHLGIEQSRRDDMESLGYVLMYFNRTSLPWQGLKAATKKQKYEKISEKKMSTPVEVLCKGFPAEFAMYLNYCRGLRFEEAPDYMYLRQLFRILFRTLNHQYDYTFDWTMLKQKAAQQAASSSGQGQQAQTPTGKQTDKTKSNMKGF
T5 sequence (Q96SW2 whole entry): as the sequence (Q96SW2 whole entry) above
T5 sequence (Q16531 whole entry partner): as the sequence (Q16531 whole entry partner) above
Outline: as §2

GSPT1 = biological target: T6, GSPT1 (Homo sapiens, UniProt P15170+Q96SW2); assay: Western blot degradation of GSPT1 (hPBMC); conditions: Table D16
T6 construct: evaluate the effects of the compounds of the present disclosure on the expression of target proteins in cells; endogenous in cells; host or cells: hPBMC
T6 sequence (P15170 whole entry): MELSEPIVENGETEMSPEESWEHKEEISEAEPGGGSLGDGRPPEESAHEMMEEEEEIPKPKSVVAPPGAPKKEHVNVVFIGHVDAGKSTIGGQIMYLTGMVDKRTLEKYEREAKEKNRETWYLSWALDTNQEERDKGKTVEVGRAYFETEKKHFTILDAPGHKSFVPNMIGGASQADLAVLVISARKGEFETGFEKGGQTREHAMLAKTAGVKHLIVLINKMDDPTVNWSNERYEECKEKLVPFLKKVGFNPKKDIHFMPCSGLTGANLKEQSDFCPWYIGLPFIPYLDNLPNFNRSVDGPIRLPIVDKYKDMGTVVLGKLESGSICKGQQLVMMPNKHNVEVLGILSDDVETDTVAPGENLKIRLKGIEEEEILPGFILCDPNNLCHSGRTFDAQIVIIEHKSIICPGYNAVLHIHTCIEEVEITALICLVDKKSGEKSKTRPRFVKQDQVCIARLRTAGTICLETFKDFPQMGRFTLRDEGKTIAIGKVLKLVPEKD
T6 sequence (Q96SW2 whole entry): as the sequence (Q96SW2 whole entry) above
T6 sequence (Q16531 whole entry partner): as the sequence (Q16531 whole entry partner) above
Outline: as §2

MCF7 = assay: CCK-8 proliferation, MCF7 (MCF-7); conditions: Homo sapiens, MCF7; CCK-8; read-out: Inhibitory activity (IC50) on tumor cell proliferation, MCF-7
Outline: as §1

Structure (SMILES) | pIC50 (MM.1S; CCK-8, 72 hours) | Degradation of substrate protein WEE1 (substrate protein remaining %) (WEE1) | Degradation of substrate protein IKZF1 (substrate protein remaining %) (IKZF1) | Degradation of substrate protein IKZF2 (substrate protein remaining %) (IKZF2) | Degradation of substrate protein IKZF3 (substrate protein remaining %) (IKZF3) | Degradation of substrate protein CKla (substrate protein remaining %) (CK1a) | Degradation of substrate protein GSPT1 (substrate protein remaining %) (GSPT1) | pIC50 (MM.1S; 72 h) | pIC50 (MCF7)
O=C1CCN(c2cnc(CCl)c(F)c2)C(=O)N1 [GT-07557, 1-(6-(Chloromethyl)-5-fluoropyridin-3-yl)dihydropyrimidine-2,4(1H,3H)-dione] | 5.30 to 6.00 | A (A is defined as 0% ≤ substrate protein remaining % ≤ 80%) | A (A is defined as 0% ≤ substrate protein remaining % ≤ 80%) | B (B is defined as substrate protein remaining % > 80%) | B (B is defined as substrate protein remaining % > 80%) | A (A is defined as 0% ≤ substrate protein remaining % ≤ 80%) | B (B is defined as substrate protein remaining % > 80%) | – | –
CC(C)(C)[Si](C)(C)OCc1ccc(NC2CCC(=O)NC2=O)cn1 (stereo not shown) [GT-07445, 3-((6-(((tert-Butyldimethylsilyl)oxy)methyl)pyridin-3-yl)amino)piperidine-2,6-dione] | – | A (A is defined as 0% ≤ substrate protein remaining % ≤ 80%) | A (A is defined as 0% ≤ substrate protein remaining % ≤ 80%) | B (B is defined as substrate protein remaining % > 80%) | B (B is defined as substrate protein remaining % > 80%) | A (A is defined as 0% ≤ substrate protein remaining % ≤ 80%) | A (A is defined as 0% ≤ substrate protein remaining % ≤ 80%) | 6.00 to 6.30 | –
CC(C)(C)[Si](C)(C)OCc1ccc(NC2CCC(=O)NC2=O)nc1 (stereo not shown) [GT-07552, 3-((5-(((tert-Butyldimethylsilyl)oxy)methyl)pyridin-2-yl)amino)piperidine-2,6-dione] | – | B (B is defined as substrate protein remaining % > 80%) | B (B is defined as substrate protein remaining % > 80%) | A (A is defined as 0% ≤ substrate protein remaining % ≤ 80%) | B (B is defined as substrate protein remaining % > 80%) | B (B is defined as substrate protein remaining % > 80%) | B (B is defined as substrate protein remaining % > 80%) | 5.30 to 6.00 | –
O=C1CCC(c2ccc(CO)nn2)C(=O)N1 (stereo not shown) [GT-07636, 3-(6-(Hydroxymethyl)pyridazin-3-yl)piperidine-2,6-dione] | 5.30 to 6.00 | B (B is defined as substrate protein remaining % > 80%) | A (A is defined as 0% ≤ substrate protein remaining % ≤ 80%) | A (A is defined as 0% ≤ substrate protein remaining % ≤ 80%) | A (A is defined as 0% ≤ substrate protein remaining % ≤ 80%) | B (B is defined as substrate protein remaining % > 80%) | A (A is defined as 0% ≤ substrate protein remaining % ≤ 80%) | – | –
O=Cc1cnc(NC2CCC(=O)NC2=O)nc1 (stereo not shown) [GT-07367, 2-((2,6-Dioxopiperidin-3-yl)amino)pyrimidine-5-carbaldehyde] | 5.30 to 6.00 | B (B is defined as substrate protein remaining % > 80%) | B (B is defined as substrate protein remaining % > 80%) | B (B is defined as substrate protein remaining % > 80%) | B (B is defined as substrate protein remaining % > 80%) | A (A is defined as 0% ≤ substrate protein remaining % ≤ 80%) | A (A is defined as 0% ≤ substrate protein remaining % ≤ 80%) | – | –
O=C1CCC(Nc2ccc(CO)nc2)C(=O)N1 (stereo not shown) [GT-07446, 3-((6-(Hydroxymethyl)pyridin-3-yl)amino)piperidine-2,6-dione] | – | A (A is defined as 0% ≤ substrate protein remaining % ≤ 80%) | A (A is defined as 0% ≤ substrate protein remaining % ≤ 80%) | A (A is defined as 0% ≤ substrate protein remaining % ≤ 80%) | A (A is defined as 0% ≤ substrate protein remaining % ≤ 80%) | A (A is defined as 0% ≤ substrate protein remaining % ≤ 80%) | A (A is defined as 0% ≤ substrate protein remaining % ≤ 80%) | – | 5.30 to 6.00
O=Cc1cccnc1NC1CCC(=O)NC1=O (stereo not shown) [GT-07447, 2-((2,6-Dioxopiperidin-3-yl)amino)nicotinaldehyde] | – | A (A is defined as 0% ≤ substrate protein remaining % ≤ 80%) | A (A is defined as 0% ≤ substrate protein remaining % ≤ 80%) | A (A is defined as 0% ≤ substrate protein remaining % ≤ 80%) | A (A is defined as 0% ≤ substrate protein remaining % ≤ 80%) | A (A is defined as 0% ≤ substrate protein remaining % ≤ 80%) | A (A is defined as 0% ≤ substrate protein remaining % ≤ 80%) | – | 5.30 to 6.00
O=C1CCC(c2ncccc2CO)C(=O)N1 (stereo not shown) [GT-07370, 3-(3-(Hydroxymethyl)pyridin-2-yl)piperidine-2,6-dione] | – | B (B is defined as substrate protein remaining % > 80%) | B (B is defined as substrate protein remaining % > 80%) | B (B is defined as substrate protein remaining % > 80%) | B (B is defined as substrate protein remaining % > 80%) | A (A is defined as 0% ≤ substrate protein remaining % ≤ 80%) | A (A is defined as 0% ≤ substrate protein remaining % ≤ 80%) | – | 5.30 to 6.00
O=C1CCC(Nc2cc(CO)ccn2)C(=O)N1 (stereo not shown) [GT-07366, 3-((4-(Hydroxymethyl)pyridin-2-yl)amino)piperidine-2,6-dione] | – | B (B is defined as substrate protein remaining % > 80%) | B (B is defined as substrate protein remaining % > 80%) | B (B is defined as substrate protein remaining % > 80%) | B (B is defined as substrate protein remaining % > 80%) | A (A is defined as 0% ≤ substrate protein remaining % ≤ 80%) | A (A is defined as 0% ≤ substrate protein remaining % ≤ 80%) | – | 5.30 to 6.00
O=C1CCC(Nc2cc(CO)c(F)cn2)C(=O)N1 (stereo not shown) [GT-07725, 3-((5-fluoro-4-(hydroxymethyl)pyridin-2-yl)amino)piperidine-2,6-dione] | – | A (A is defined as 0% ≤ substrate protein remaining % ≤ 80%) | A (A is defined as 0% ≤ substrate protein remaining % ≤ 80%) | A (A is defined as 0% ≤ substrate protein remaining % ≤ 80%) | A (A is defined as 0% ≤ substrate protein remaining % ≤ 80%) | B (B is defined as substrate protein remaining % > 80%) | A (A is defined as 0% ≤ substrate protein remaining % ≤ 80%) | – | 5.30 to 6.00
